Reference: PubChem BioAssay (NCI)
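Protocol summary: plate cells (96-well), add compound at 5 concentrations, incubate 48 h, interpolate endpoints linearly. Definition used: TGI = concentration required for complete inhibition of growth.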 Where a SMILES comes first, the peptide text is derived from it. The star is where a group is joined. Cbz = O=C(OCc1ccccc1)*; Boc = CC(C)(C)OC(=O)*; OBn = c1ccc(CO*)cc1

Tests used:
Assay in all cases: NCI-60 cell line screen, 48 h
OVCAR-5 ovarian = tested on: OVCAR-5 ovarian
KM12 colon = tested on: KM12 colon
HS 578T breast = tested on: HS 578T breast
OVCAR-8 ovarian = tested on: OVCAR-8 ovarian
OVCAR-3 ovarian = tested on: OVCAR-3 ovarian
MALME-3M melanoma = tested on: MALME-3M melanoma
SF-539 CNS = tested on: SF-539 CNS
NCI/ADR-RES ovarian = tested on: NCI/ADR-RES ovarian
BT-549 breast = tested on: BT-549 breast
786-0 renal = tested on: 786-0 renal
HOP-92 NSCLC = tested on: HOP-92 NSCLC
PC-3 prostate = tested on: PC-3 prostate
HCT-15 colon = tested on: HCT-15 colon
SK-OV-3 ovarian = tested on: SK-OV-3 ovarian
SNB-19 CNS = tested on: SNB-19 CNS
A549 NSCLC = tested on: A549 NSCLC
HOP-62 NSCLC = tested on: HOP-62 NSCLC
SF-295 CNS = tested on: SF-295 CNS

Row | Structure (SMILES) | TGI (OVCAR-5 ovarian) | TGI (KM12 colon) | TGI (HS 578T breast) | TGI (OVCAR-8 ovarian) | TGI (OVCAR-3 ovarian) | TGI (MALME-3M melanoma) | TGI (SF-539 CNS) | TGI (NCI/ADR-RES ovarian) | TGI (BT-549 breast) | TGI (786-0 renal) | TGI (HOP-92 NSCLC) | TGI (PC-3 prostate) | TGI (HCT-15 colon) | TGI (SK-OV-3 ovarian) | TGI (SNB-19 CNS) | TGI (A549 NSCLC) | TGI (HOP-62 NSCLC) | TGI (SF-295 CNS)
1 | O=C(CCl)Nc1ccc(-c2nc3ccccc3s2)cc1 | 17.1 µM | 11 µM | 20.1 µM | 9.66 µM | 3.61 µM | 4.13 µM | 8.16 µM | > 56.2 µM | 2.95 µM | 4.62 µM | 6.08 µM | 6.71 µM | 6.65 µM | 17.5 µM | 9.99 µM | 21.8 µM | 12.3 µM | 15 µM
2 | COc1cc([C@@H]2c3cc4c(cc3[C@@H](N=Cc3ccc(C(=O)O[C@H]5C[C@H]6OC[C@@]6(OC(C)=O)[C@H]6[C@H](OC(=O)c7ccccc7)[C@]7(O)C[C@H](OC(=O)[C@H](OC(=O)c8ccc(C=N[C@@H]9c%10cc%11c(cc%10[C@@H](c%10cc(OC)c(O)c(OC)c%10)[C@H]%10C(=O)OC[C@@H]%109)OCO%11)cc8)[C@@H](NC(=O)c8ccccc8)c8ccccc8)C(C)=C([C@@H](OC(C)=O)C(=O)[C@]56C)C7(C)C)cc3)C3COC(=O)C32)OCO4)cc(C)c1O (stereo not given in full) | > 23.6 µM | > 50 µM | > 50 µM | > 50 µM | > 31.9 µM | > 50 µM | > 37.8 µM | > 50 µM | > 50 µM | > 50 µM | > 50 µM | > 27.5 µM | > 50 µM | > 39.3 µM | > 50 µM | > 50 µM | > 50 µM | > 50 µM
3 | C=CCSC1=N/C(=C\c2ccco2)C(=O)N1CC=C | > 100 µM | > 100 µM | > 100 µM | > 100 µM | > 100 µM | > 100 µM | > 100 µM | > 100 µM | > 100 µM | > 100 µM | > 100 µM | > 100 µM | > 100 µM | > 100 µM | > 100 µM | > 100 µM | > 100 µM | > 100 µM
4 | COc1ccc2[nH]c3c(c2c1)CCc1ccccc1-3 | > 100 µM | > 100 µM | 37.4 µM | > 100 µM | > 100 µM | > 100 µM | 32.1 µM | > 100 µM | > 100 µM | > 100 µM | > 100 µM | > 100 µM | > 100 µM | > 100 µM | > 100 µM | > 100 µM | > 100 µM | > 100 µM
5 | COc1ccc(C(c2ccccc2)N2C(=O)CCC2C(=O)O)cc1OC (stereo not given) | > 100 µM | > 100 µM | > 100 µM | > 100 µM | > 100 µM | > 100 µM | > 100 µM | > 100 µM | > 100 µM | > 100 µM | > 100 µM | > 100 µM | > 100 µM | > 100 µM | > 100 µM | > 100 µM | > 100 µM | > 100 µM
6 | Nc1nc(Cl)cc(NCC2(CO)CC(O)C2)n1 (stereo not given) | > 100 µM | > 100 µM | > 100 µM | > 100 µM | > 100 µM | > 100 µM | > 100 µM | > 100 µM | > 100 µM | > 100 µM | > 100 µM | > 100 µM | > 100 µM | > 100 µM | > 100 µM | > 100 µM | > 100 µM | > 100 µM
7 | COC(=O)C(CCCCNC(=O)OCc1ccccc1)NC(=O)C(CCC(=O)OCc1ccccc1)NC(=O)OC(C)(C)C (stereo not given) (Boc-Glu(OBn)-Lys(Cbz)-OMe; configuration not given here) | > 100 µM | > 100 µM | > 100 µM | > 100 µM | > 100 µM | > 100 µM | > 100 µM | > 100 µM | > 100 µM | > 100 µM | > 100 µM | > 100 µM | > 100 µM | > 100 µM | > 100 µM | > 100 µM | 32.2 µM | > 100 µM
8 | CC(=O)NC1C(OCc2ccccc2)OC(CO)C(O)C1OCC(=O)NC(C)C(=O)NC(CCC(=O)Nc1ccc2c(c1)CN1C(=O)c3ccccc3C1=N2)C(N)=O (stereo not given) | > 100 µM | > 100 µM | > 100 µM | > 100 µM | > 100 µM | > 100 µM | > 100 µM | > 100 µM | > 100 µM | > 100 µM | > 100 µM | > 100 µM | > 100 µM | > 100 µM | > 100 µM | > 100 µM | > 100 µM | > 100 µM
9 | c1ncc(C23C4C5C6C4C2C6C53)[nH]1 (stereo not given) | > 100 µM | > 100 µM | > 100 µM | > 100 µM | > 100 µM | > 100 µM | > 100 µM | > 100 µM | > 100 µM | > 100 µM | > 100 µM | > 100 µM | > 100 µM | > 100 µM | > 100 µM | > 100 µM | > 100 µM | > 100 µM
10 | CSc1nc2ccccc2c(=O)n1-c1cccc(C)c1 | > 100 µM | > 100 µM | > 100 µM | > 100 µM | > 100 µM | > 100 µM | > 100 µM | > 100 µM | > 100 µM | > 100 µM | > 100 µM | > 100 µM | > 100 µM | > 100 µM | > 100 µM | > 100 µM | > 100 µM | > 100 µM
11 | COC(=O)/C=C1/OC(c2ccccc2)=CC1=O | 36.9 µM | 32.4 µM | 65.9 µM | 35.8 µM | 39.4 µM | 34.9 µM | 39.8 µM | 58.7 µM | 32 µM | 27.9 µM | 52.8 µM | 40.2 µM | 30.1 µM | > 94.4 µM | 32 µM | > 82.9 µM | 44.7 µM | 21.8 µM
12 | COC(=O)C(NC(=O)C12CCC(C)(C(=O)O1)C2(C)C)c1cc(C(C)(C)C)c(O)c(C(C)(C)C)c1 (stereo not given) | > 100 µM | > 100 µM | > 100 µM | > 100 µM | > 100 µM | > 100 µM | > 100 µM | > 100 µM | > 100 µM | > 100 µM | > 100 µM | > 100 µM | > 100 µM | > 100 µM | > 100 µM | > 100 µM | > 100 µM | > 100 µM
13 | CC1=NN(c2ccccc2Cl)C2(C1)SCC(=O)N2c1nc2ccccc2s1 (stereo not given) | > 100 µM | > 100 µM | > 100 µM | > 100 µM | > 100 µM | > 100 µM | > 100 µM | > 100 µM | > 100 µM | > 100 µM | > 100 µM | > 100 µM | > 100 µM | > 100 µM | > 100 µM | > 100 µM | > 100 µM | > 100 µM
14 | O=C1Nc2ccccc2/C1=C\c1c(Cl)[nH]c2ccccc12 | 5.05 µM | 1.67 µM | 2.57 µM | 8.51 µM | 17.5 µM | 6.39 µM | 1.43 µM | 1.31 µM | 6.22 µM | 3.66 µM | 3.6 µM | 3.46 µM | 17.5 µM | 1.2 µM | 5.21 µM | 13.3 µM | 7.51 µM | 0.956 µM
15 | CCCN=C1S/C(=C/c2ccc(OC)c(OC)c2)C(=O)N1c1ccccc1 | > 100 µM | > 100 µM | > 100 µM | > 100 µM | 43.3 µM | > 100 µM | 30.2 µM | > 100 µM | > 100 µM | 50.2 µM | > 100 µM | > 100 µM | > 100 µM | 37.8 µM | 63.4 µM | > 100 µM | 15.2 µM | 34.9 µM
16 | ClCc1nc2cc(Cl)ccc2o1 | 38.6 µM | 28.6 µM | > 61.5 µM | 20 µM | 4.07 µM | 27.3 µM | 17.8 µM | 98.4 µM | 28.2 µM | 3.34 µM | 3.87 µM | 19.6 µM | 16.7 µM | 28.9 µM | 21.5 µM | 42.2 µM | 8.28 µM | 37.4 µM
17 | CC(C)Cn1cnnc1NS(=O)(=O)c1cc(C(=O)NN)c(Cl)cc1S | > 10 µM | > 10 µM | > 10 µM | > 10 µM | > 10 µM | > 10 µM | > 10 µM | > 10 µM | > 10 µM | > 10 µM | > 10 µM | > 10 µM | > 10 µM | > 10 µM | > 10 µM | > 10 µM | > 10 µM | > 10 µM
18 | CC1(c2nc3ccccc3[nH]2)CCC(CO)C(C)(C)O1 (stereo not given) | > 100 µM | > 100 µM | > 100 µM | > 100 µM | > 100 µM | > 100 µM | > 100 µM | > 100 µM | > 100 µM | > 100 µM | > 100 µM | > 100 µM | > 100 µM | > 100 µM | > 100 µM | > 100 µM | > 100 µM | > 100 µM
19 | COc1cccc2c(=O)c3c(O)c4cc(N(C)C)ccc4c(OC(C)=O)c3oc12 | > 100 µM | 34.8 µM | 69.5 µM | 37.4 µM | 13.6 µM | 8.96 µM | 40.4 µM | 60.5 µM | 21.9 µM | 24 µM | 39.3 µM | 56.7 µM | 25.3 µM | > 100 µM | 91.6 µM | > 100 µM | 41.5 µM | > 100 µM
20 | CC(=O)N(CCc1ccccc1)C(C)(C#N)c1ccccc1 (stereo not given) | > 100 µM | > 100 µM | > 100 µM | > 100 µM | > 100 µM | > 100 µM | > 100 µM | > 100 µM | > 100 µM | > 100 µM | > 100 µM | > 100 µM | > 100 µM | > 100 µM | > 100 µM | > 100 µM | > 100 µM | > 100 µM
